Patent publication US9615577B2, “Herbicidally active cyclic dione compounds, or derivatives therefor, substituted by a phenyl which has an alkynyl-containing substituent” (Syngenta Limited, priority 2012, dated 2017)

Assays:
Type in all cases: in vivo
[1] = test system: Amarantus retroflexus (AMARE); test: Biological Example 2 comparative herbicidal data, post-emergence glasshouse screen; details: Amaranthus retroflexus, read-out: Post-emergence herbicidal activities (percentage phytotoxicity) AMARE; for pest or weed control at 8 g/ha: 8 g/ha application rate; for pest or weed control at 30 g/ha: 30 g/ha application rate
[2] = test system: Alopecurus myosuroides (ALOMY); test: Test 1A glasshouse assay for herbicidal activity, post-emergence; details: 312 h, evaluated after 13 days, read-out: percentage phytotoxicity ALOMY
Protocol: (§1) Seeds of a variety of test species were sown in standard soil in pots. After cultivation for one day (pre-emergence) or after 8 days cultivation (post-emergence) under controlled conditions in a glasshouse (at 24/16° C., day/night; 14 hours light; 65% humidity), the plants were sprayed with an aqueous spray solution derived from the formulation of the technical active ingredient in acetone/I water (50:50) solution containing 0.5% Tween 20 (polyoxyethelyene sorbitan monolaurate, CAS RN 9005-64-5). The test plants were then grown in a glasshouse under controlled conditions in a glasshouse (at 24/16° C., day/night; 14 hours light; 65% humidity) and watered twice daily. After 13 days for pre and post-emergence, the test was evaluated visually for percentage phytotoxicity to the plant (where 100=total damage to plant; 0=no damage to plant).
(§2) Alopecurus myosuroides (ALOMY), Setaria faberi (SETFA), Echinochloa crus-galli (ECHCG), Solanum nigrum (SOLNI), Amaranthus retroflexus (AMARE), Ipomoea hederacea (IPOHE), and Abutilon theophasti Medik. (ABUTH, common English name “velvetleaf”). Of these, Alopecurus myosuroides (ALOMY), Setaria faberi (SETFA), and Echinochloa crus-galli (ECHCG) are grassy monocotyledonous weeds.

[3] = test system: Abutilon theophasti Medik. (ABUTH); test: as above; details: 312 h, evaluated after 13 days, read-out: percentage phytotoxicity ABUTH
Protocol: as §1, §2

[4] = test system: Amaranthus retroflexus (AMARE); test: as above; details: 312 h, evaluated after 13 days, read-out: percentage phytotoxicity AMARE
Protocol: as §1, §2

Setaria faberi (SETFA) [5] = test: as above; details: 312 h, evaluated after 13 days, read-out: percentage phytotoxicity SETFA
Protocol: as §1, §2

[6] = test system: Echinochloa crus-galli (ECHCG); test: as above; details: 312 h, evaluated after 13 days, read-out: percentage phytotoxicity ECHCG
Protocol: as §1, §2

[7] = test system: Abutilon theophasti Medik. (ABUTH); test: Biological Example 2 comparative herbicidal data, post-emergence glasshouse screen; details: read-out: Post-emergence herbicidal activities (percentage phytotoxicity) ABUTH; for pest or weed control at 8 g/ha: 8 g/ha application rate; for pest or weed control at 30 g/ha: 30 g/ha application rate
[8] = test system: Alopecurus myosuroides (ALOMY); test: as above; details: 312 h, read-out: Post-emergence herbicidal activities (percentage phytotoxicity) ALOMY; for pest or weed control at 8 g/ha: 8 g/ha application rate; for pest or weed control at 30 g/ha: 30 g/ha application rate
Protocol: as §1
(§3) Comparative herbicidal data is given below for certain exemplified compounds with 4-(prop-1-ynyl)-2,6-dimethylphenyl or 4-(chloroethynyl)-2,6-dimethylphenyl headgroups, compared to the corresponding compounds with either 4-ethynyl-2,6-dimethylphenyl or 2,4,6-trimethylphenyl headgroups, as follows. Comparative herbicidal data is also given below for certain exemplified compounds with 4-(prop-1-ynyl)-2-chloro-6-methoxyphenyl headgroups, compared to the corresponding compounds with 4-ethynyl-2-chloro-6-methoxyphenyl or 4-(but-1-ynyl)-2-chloro-6-methoxyphenyl or 4-methyl-2-chloro-6-methoxyphenyl or 2-chloro-6-methoxyphenyl headgroups, as follows.
(§4) Except where specified otherwise, the glasshouse screen for herbicidal activity is substantially the same as that presented in Biological Example 1A (Test 1A) hereinabove. The weed abbreviations are as defined in Biological Example 1A.

Setaria faberi (SETFA) [9] = test: as above; details: 312 h, read-out: Post-emergence herbicidal activities (percentage phytotoxicity) SETFA; for pest or weed control at 8 g/ha: 8 g/ha application rate; for pest or weed control at 30 g/ha: 30 g/ha application rate
Protocol: as §1, §3, §4

[10] = test system: Echinochloa crus-galli (ECHCG); test: as above; details: 312 h, read-out: Post-emergence herbicidal activities (percentage phytotoxicity) ECHCG; for pest or weed control at 8 g/ha: 8 g/ha application rate; for pest or weed control at 30 g/ha: 30 g/ha application rate
Protocol: as §1, §3, §4

[11] = test system: Alopecurus myosuroides (ALOMY); test: Test 1A glasshouse assay for herbicidal activity, pre-emergence; details: 312 h, evaluated after 13 days, read-out: percentage phytotoxicity ALOMY
Protocol: as §1, §2

[12] = test system: Abutilon theophasti Medik. (ABUTH); test: as above; details: 312 h, evaluated after 13 days, read-out: percentage phytotoxicity ABUTH
Protocol: as §1, §2

[13] = test system: Amaranthus retroflexus (AMARE); test: as above; details: 312 h, evaluated after 13 days, read-out: percentage phytotoxicity AMARE
Protocol: as §1, §2

Setaria faberi (SETFA) [14] = test: as above; details: 312 h, evaluated after 13 days, read-out: percentage phytotoxicity SETFA
Protocol: as §1, §2

[15] = test system: Echinochloa crus-galli (ECHCG); test: as above; details: 312 h, evaluated after 13 days, read-out: percentage phytotoxicity ECHCG
Protocol: as §1, §2

| Structure (SMILES) | pest or weed control at 8 g/ha [1] [%] | pest or weed control at 30 g/ha [1] [%] | pest or weed control at 250 g/ha [2] [%] | pest or weed control at 250 g/ha [3] [%] | pest or weed control at 250 g/ha [4] [%] | pest or weed control at 250 g/ha (Setaria faberi (SETFA) [5]) [%] | pest or weed control at 250 g/ha [6] [%] | pest or weed control at 8 g/ha [7] [%] | pest or weed control at 30 g/ha [7] [%] | pest or weed control at 8 g/ha [8] [%] | pest or weed control at 30 g/ha [8] [%] | pest or weed control at 8 g/ha (Setaria faberi (SETFA) [9]) [%] | pest or weed control at 30 g/ha (Setaria faberi (SETFA) [9]) [%] | pest or weed control at 8 g/ha [10] [%] | pest or weed control at 30 g/ha [10] [%] | pest or weed control at 250 g/ha [11] [%] | pest or weed control at 250 g/ha [12] [%] | pest or weed control at 250 g/ha [13] [%] | pest or weed control at 250 g/ha (Setaria faberi (SETFA) [14]) [%] | pest or weed control at 250 g/ha [15] [%] | also measured |
| --- | --- | --- | --- | --- | --- | --- | --- | --- | --- | --- | --- | --- | --- | --- | --- | --- | --- | --- | --- | --- | --- |
| C#Cc1cc(Cl)c(C2C(=O)CCCC2=O)c(OC)c1 [Compound B-2, 2-(2-Chloro-4-ethynyl-6-methoxy-phenyl)-3-hydroxy-cyclohex-2-en-1-one] | 0 | 0 | 70 | 0 | 0 | 90 | 100 | 0 | 0 | 0 | 0 | 10 | 70 | 0 | 80 | 60 | 10 | 10 | 90 | 90 |  |
| C#Cc1cc(C)c(C2C(=O)CC(c3ccccn3)CC2=O)c(C)c1 (stereo not drawn) [Compound X-4, reference compound] | 0 | 0 | 80 | 80 | 0 | 100 | 100 | 0 | 0 | 40 | 60 | 40 | 50 | 20 | 40 | 70 | 0 | 0 | 100 | 90 | pest or weed control at 30 g/ha [2]: 60%; pest or weed control at 30 g/ha [3]: 0%; pest or weed control at 30 g/ha [4]: 0%; pest or weed control at 30 g/ha (Setaria faberi (SETFA) [5]): 50%; pest or weed control at 30 g/ha [6]: 40%; pest or weed control at 30 g/ha ([11]; 30 g/ha): 0%; pest or weed control at 30 g/ha ([12]; 30 g/ha): 0%; pest or weed control at 30 g/ha ([13]; 30 g/ha): 0%; pest or weed control at 30 g/ha (Setaria faberi (SETFA) [14]; 30 g/ha): 40%; pest or weed control at 30 g/ha ([15]; 30 g/ha): 30% |
| CC#Cc1cc(Cl)c(C2C(=O)CCCC2=O)c(OC)c1 [Compound A-22, 2-(2-Chloro-6-methoxy-4-prop-1-ynyl-phenyl)cyclohexane-1,3-dione] | 0 | 20 | 90 | 70 | 0 | 100 | 100 | 0 | 10 | 10 | 60 | 70 | 80 | 80 | 90 | 90 | 60 | 70 | 100 | 100 | pest or weed control at 30 g/ha [2]: 60%; pest or weed control at 30 g/ha [3]: 10%; pest or weed control at 30 g/ha [4]: 20%; pest or weed control at 30 g/ha (Setaria faberi (SETFA) [5]): 80%; pest or weed control at 30 g/ha [6]: 90% |
| COc1cccc(Cl)c1C1C(=O)CC2(CCOCC2)CC1=O [Compound X-6, reference compound] |  | 20 |  |  |  |  |  |  | 0 |  | 20 |  | 10 |  | 10 |  |  |  |  |  |  |
| COc1cc(C)cc(Cl)c1C1C(=O)C2CCC(C2)C1=O (stereo not drawn) [Compound X-5, reference compound] | 30 | 30 |  |  |  |  |  | 0 | 10 | 0 | 30 | 20 | 60 | 0 | 80 |  |  |  |  |  |  |
